Key:
[1] = for vapor or sublimation pressure: Liquid, Closed cell (Static) method
[2] = molar enthalpy of vaporization or sublimation; details: 298.15 K; Crystal; Static calorimetry
[3] = Molar enthalpy of transition or fusion; details: Crystal; DSC

CN(C)c1cccc2cccc(N(C)C)c12 [1,8-bis(dimethylamino)naphthalene]
[1]
Details | vapor or sublimation pressure [kPa]
322.96 K | 0.00189
327.93 K | 0.00285
332.9 K | 0.00428
337.88 K | 0.00638
342.85 K | 0.00921
347.82 K | 0.01325
352.78 K | 0.01867
357.73 K | 0.02622
362.69 K | 0.03643
367.65 K | 0.0494
372.6 K | 0.06696
377.55 K | 0.08952
382.51 K | 0.1184

Details | Triple point temperature [K]
[1], Crystal, DTA | 322.2

Details | Molar enthalpy of transition or fusion [kJ/mol] | molar enthalpy [kJ/mol]
[2] | – | 93.9
[3] | 17.5 | –

From the NIST ThermoML archive (doi:10.1016/j.jct.2012.05.013)
